US5488049A, “Method of treating learning and memory disorders using benzothiadiazide derivatives as nootropic agents” (FIDIA - Georgetown Institute for the Neuro-Sciences, priority 1993, dated 1996)

Assays:
Assay type in all cases: cell-based, rat
[1] = system: EPSCs elicited in CAl pyramidal neurons; assay: Excitatory postsynaptic currents (EPSCs) in CAl pyramidal neurons in hippocampal slices on stimulation of Schaffer collateral afferents
Description: (§1) Young rats (12-16 days old) were decapitated and the brains quickly removed and placed in ice-cold Ringer solution. Thin slices of hippocampus (250 μm) were then cut with a vibratome slicer (Lancer, St. Louis, Mo.) and kept in Ringer solution at 37° C. until use. The experiments were carried out at room temperature with the slice totally submerged in a 1 ml volume recording chamber and under continuous perfusion with Ringer solution at a rate of 6 ml/min using an upright Hoffman modulation contrast microscope (Carl Zeiss, Germany) equipped with a 40×water immersion objective.
(§2) Ionic currents in whole-cell configuration and outside-out excised membrane patches were monitored using the patch clamp technique (15).
Traces were filtered at 3 KHz (-3 dB, 8-pole, lowpass Bessel filter, Frequency Devices), and stored in an LSI 11/73 computer (INDEC System, Sunnyvale, Calif.) after digitization (10 KHz) with a Data Translation analog to digital converter. Decay time constants of EPSC and glutamate-activated currents were determined from exponential fitting with the 11/73 system by using an entirely automated least-squares procedures (see Vicini and Schuetze, 1985, for further details). This method uses a Simplex algorithm (Caceci and Cacheris, 1984) to fit the data to either a single or double exponential equation of the form I(t)=If exp(-t/tauf)+Is exp(-t/taus), where If and Is are the amplitudes of the sIPSC fast and slow components, and tauf and taus are their respective decay time constants. Peak amplitudes were measured at the absolute maximum of the currents, taking into account the noise of the baseline and noise around the peak. Rise times were measured as the time elapsed from 20 to 80% of the peak amplitude of the response.
The action of nootropic drugs on the excitatory postsynaptic currents (EPSCs) elicited in CAl pyramidal neurons in hippocampal slices was investigated by stimulation of the Schaffer collateral afferents.

[2] = system: AMPA receptor; assay: Fast application with Y-tubing: dose-response on desensitization of glutamate current in outside-out patches from CAl pyramidal neurons; settings: increasing doses, 5 μM MK-801
From the text: Media and drug application. The external Ringer solution contained (in mM): NaCl 120; KCl 3.1; CaCl2 2; MgCl2 1; KH2 PO4 1; NaHCO3 26; glucose 2.7; and it was continuously bubbled with 95% O2 and 5% CO2. Patch pipettes were filled with a solution containing (in mM): K-gluconate 140; MgCl2 1; ATP.Mg 2; EGTA 0.5; HEPES-KOH 10, pH 7.2. All the drugs under investigation were applied through the recording chamber perfusion system via parallel inputs having a common entry into the chamber. Agonist application was attained using two different systems that allowed a slow or a rapid solution change. Slow solution changes were used during recordings in whole-cell configuration and were obtained by exchanging the solution of the recording chamber within a few seconds. […]
Briefly, a polyethylene tubing (1 mm i.d.) is bent in a U-shaped, and another fine polyethylene tubing (50 μi.d.) and 10 mm length) is inserted into a small hole in the U-tubing making the tip of the Y-tubing. […] The agonist was applied for a period of 150 ms and the time necessary for a complete exchange of the solution was less than 1 ms as measured at the opening of a patch pipette containing different dilutions of the drugs under study. […]
Dose-response studies were performed with the Y-tubing system, and analyzed with sigmoid interpolation (Graphpad Academic Press). […]

[3] = system: kainate-activated current; assay: Selectivity: ionic current elicited by 20 μM kainate
Description: as §1
(§3) Media and drug application. The external Ringer solution contained (in mM): NaCl 120; KCl 3.1; CaCl2 2; MgCl2 1; KH2 PO4 1; NaHCO3 26; glucose 2.7; and it was continuously bubbled with 95% O2 and 5% CO2. Patch pipettes were filled with a solution containing (in mM): K-gluconate 140; MgCl2 1; ATP.Mg 2; EGTA 0.5; HEPES-KOH 10, pH 7.2. All the drugs under investigation were applied through the recording chamber perfusion system via parallel inputs having a common entry into the chamber. Agonist application was attained using two different systems that allowed a slow or a rapid solution change. Slow solution changes were used during recordings in whole-cell configuration and were obtained by exchanging the solution of the recording chamber within a few seconds. Fast solution changes were obtained with the use of the Y-shaped tubing method that allows complete exchange of solution in less than 10 ms, and is described in detail by Murase et al. (1989).
as §2

[4] = system: AMPA receptor; assay: Fast application with double barrel pipette: AMPA receptor desensitization in outside-out patches from CAl hippocampal pyramidal neurons
Description: as §1, §3
Briefly, a polyethylene tubing (1 mm i.d.) is bent in a U-shaped, and another fine polyethylene tubing (50 μi.d.) and 10 mm length) is inserted into a small hole in the U-tubing making the tip of the Y-tubing. Solutions are fed to the Y-tubing by gravity, and negative pressure facilitates exchange of the solution. The tip of the Y-tubing is positioned 100 μm from the cell investigated, and upon opening and closing of a valve that controls the negative pressure, it was possible to respectively change rapidly and apply a number of different test solutions. This method was used to apply agonists to excised outside-out membrane patches. More rapid drug applications were used to apply agonists to excised outside-out membrane patches, and were obtained through a double-barrelled pipette positioned close to the recording pipette containing the membrane patch. […] The agonist was applied for a period of 150 ms and the time necessary for a complete exchange of the solution was less than 1 ms as measured at the opening of a patch pipette containing different dilutions of the drugs under study. […]
Ionic currents in whole-cell configuration and outside-out excised membrane patches were monitored using the patch clamp technique (15). […]

CC1Nc2ccc(Cl)cc2S(=O)(=O)N1 (racemic) [IDRA 21, 7-chloro-3-methyl-3,4-dihydro-2H 1,2,4-benzothiadiazine S-S dioxide]
Emax at 1000 µM ([1]; Rattus norvegicus, Pyramidal neuron, read-out: efficacy in increasing delay time of AMPA current (EPSC) relative to diazoxide): 300% | Emax ([1]; Rattus norvegicus, Pyramidal neuron, read-out: response relative to diazoxide (electrophysiology summary)): 300% | response relative to aniracetam (electrophysiology summary) ([1]; summary statement): one order of magnitude larger than that of aniracetam | desensitization of current activated by 100 μM glutamate [2]: decreased by increasing doses | effect on kainate-activated current ([3]; 1 mM compound, 20 μM kainate): failed to potentiate the kainate-activated current | effect on kainate responses at doses that decreased AMPA desensitization ([3]; all doses that decrease/inhibit AMPA desensitization): failed to affect kainate responses | removal of glutamate-induced desensitization ([4]; 1 mM IDRA 21, double barrel, outside-out patches, 4 of 5 patches): completely removed the desensitization induced by glutamate in 4 of 5 patches tested | desensitization of AMPA/Kainate receptors (summary) ([4]; summary statement): reduction in the desensitization of AMPA/Kainate receptors
